This note sets out measurements from patent US20110105509A1 (Wyeth, LLC, priority 2009, published 2011).

Molecules are shown by their SMILES.

The target in the assay is T1, CRTH2 (Homo sapiens, UniProt Q9Y5Y4).
T1 construct: expressed in transfected cells; host or cells: CHO cells
T1 sequence (Q9Y5Y4 1-395): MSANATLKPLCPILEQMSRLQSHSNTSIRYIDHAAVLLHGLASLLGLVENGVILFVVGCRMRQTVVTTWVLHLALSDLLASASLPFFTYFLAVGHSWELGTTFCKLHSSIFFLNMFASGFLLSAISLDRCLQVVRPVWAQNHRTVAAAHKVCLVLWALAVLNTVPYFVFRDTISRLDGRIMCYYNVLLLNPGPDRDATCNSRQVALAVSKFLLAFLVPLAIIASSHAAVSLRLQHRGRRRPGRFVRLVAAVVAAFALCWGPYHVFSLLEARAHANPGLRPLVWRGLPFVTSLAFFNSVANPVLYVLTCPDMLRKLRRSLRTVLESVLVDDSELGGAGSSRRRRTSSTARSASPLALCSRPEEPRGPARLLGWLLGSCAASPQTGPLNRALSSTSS
Nature of the assay: FRET based competitive immunoassay (cAMP) in CRTH2 expressing CHO cells. Format: cell-based. As to conditions: CRTH2 expressing CHO cells incubated with forskolin and PGD2; Eu3+ cryptate-labeled anti-cAMP and d2-labeled cAMP. The protocol: FRET Assay: To evaluate potency compounds were tested in a FRET based competitive immunoassay in which CRTH2 expressing CHO cells were incubated in the presence of forskolin and PGD2 along with Eu3+ cryptate-labeled anti-cAMP and d2-labeled cAMP.
Take `Cc1c(-c2ccc(=O)n(CCOc3ccc(Cl)cc3)n2)c2cc(Cl)ccc2n1CC(=O)O` [Example 140, 2-(5-chloro-3-(1-(2-(4-chlorophenoxy)ethyl)-6-oxo-1,6-dihydropyridazin-3-yl)-2-methyl-1H-indol-1-yl)acetic acid]: the IC50 amounted to 0.016 µM.

`Cc1c(-c2ccc(=O)n(Cc3cccc(F)c3F)c2)c2ccccc2n1CC(=O)O` [Example 284, 2-(3-(1-(2,3-difluorobenzyl)-6-oxo-1,6-dihydropyridin-3-yl)-2-methyl-1H-indol-1-yl)acetic acid]: the IC50 was 0.015 µM.

The compound `Cc1c(-c2nn(Cc3nc4ccccc4s3)c(=O)c3ccccc23)c2ccccc2n1CC(=O)O` [Example 167, 2-(3-(3-(benzo[d]thiazol-2-ylmethyl)-4-oxo-3,4-dihydrophthalazin-1-yl)-2-methyl-1H-indol-1-yl)acetic acid] returned an IC50 of 0.014 µM.

Take `Cc1c(-c2ccc(=O)n(Cc3ccc(Cl)cc3)n2)c2cc(Cl)ccc2n1CC(=O)O` [Example 9, 2-(5-Chloro-3-(1-(4-chlorobenzyl)-6-oxo-1,6-dihydropyridazin-3-yl)-2-methyl-1H-indol-1-yl)acetic acid]: the IC50 was 0.021 µM.

Compound `Cc1c(-c2ccc(=O)n(Cc3cccc(F)c3)c2)c2cc(Cl)ccc2n1CC(=O)O` [Example 295, 2-(5-chloro-3-(1-(3-fluorobenzyl)-6-oxo-1,6-dihydropyridin-3-yl)-2-methyl-1H-indol-1-yl)acetic acid] yielded an IC50 of 0.011 µM.

`Cc1c(-c2nn(CCc3ccccc3)c(=O)c3ccccc23)c2ccccc2n1CC(=O)O` [Example 225, 2-(2-methyl-3-(4-oxo-3-phenethyl-3,4-dihydrophthalazin-1-yl)-1H-indol-1-yl)acetic acid] had an IC50 of 0.027 µM.

The compound `Cc1c(-c2nn(Cc3c(F)cccc3F)c(=O)c3ccccc23)c2cc(F)ccc2n1CC(=O)O` [Example 116, 2-(3-(3-(2,6-difluorobenzyl)-4-oxo-3,4-dihydrophthalazin-1-yl)-5-fluoro-2-methyl-1H-indol-1-yl)acetic acid] yielded an IC50 of 0.007 µM.

On to `Cc1c(-c2nn(C(C)C)c(=O)c3ccccc23)c2ccccc2n1CC(=O)O` [Example 326, [3-(3-isopropyl-4-oxo-3,4-dihydrophthalazin-1-yl)-2-methyl-1H-indol-1-yl]acetic acid], for which the IC50 is 0.061 µM.

As for `Cc1nnc(Cn2nc(-c3c(C)n(CC(=O)O)c4ccc(F)cc34)ccc2=O)[nH]1` [Example 260b, 2-(5-fluoro-2-methyl-3-(1-((5-methyl-4H-1,2,4-triazol-3-yl)methyl)-6-oxo-1,6-dihydro-pyridazin-3-yl)-1H-indol-1-yl)acetic acid], the IC50 is 1.65 µM.

Take `Cc1c(-c2ccc(=O)n(Cc3ccccc3F)c2)c2cc(Cl)ccc2n1CC(=O)O` [Example 290, 2-(5-chloro-3-(1-(2-fluorobenzyl)-6-oxo-1,6-dihydropyridin-3-yl)-2-methyl-1H-indol-1-yl)acetic acid]: the IC50 amounted to 0.007 µM.

The compound `Cc1c(-c2ccc(=O)n(Cc3ccc(F)cc3F)c2)c2cc(F)ccc2n1CC(=O)O` [Example 273, 2-(3-(1-(2,4-difluorobenzyl)-6-oxo-1,6-dihydropyridin-3-yl)-5-fluoro-2-methyl-1H-indol-1-yl)acetic acid] displayed an IC50 of 0.028 µM.

Take `Cc1c(-c2nn(Cc3ccc(C(F)(F)F)c(F)c3)c(=O)c3ccccc23)c2cc(Cl)ccc2n1CC(=O)O` [Example 3, 2-(5-Chloro-3-(3-(3-fluoro-4-(trifluoromethyl)benzyl)-4-oxo-3,4-dihydrophthalazin-1-yl)-2-methyl-1H-indol-1-yl)acetic acid]: the IC50 is 0.058 µM.

Take `Cc1c(-c2ccc(=O)n(Cc3cccc(C(F)(F)F)c3)n2)c2cc(Cl)ccc2n1CC(=O)O` [Example 212, 2-(5-chloro-2-methyl-3-(6-oxo-1-(3-(trifluoromethyl)benzyl)-1,6-dihydropyridazin-3-yl)-1H-indol-1-yl)acetic acid]: the IC50 is 0.033 µM.

`Cc1c(-c2ccc(=O)n(Cc3cccc(F)c3F)c2)c2cc(F)ccc2n1CC(=O)NS(C)(=O)=O` [Example 302, 2-(3-(1-(2,3-Difluorobenzyl)-6-oxo-1,6-dihydropyridin-3-yl)-5-fluoro-2-methyl-1H-indol-1-yl)-N-(methylsulfonyl)acetamide]: the IC50 was determined as 0.159 µM.

In turn, `Cc1c(-c2nn(Cc3ccccc3)c(=O)c3ccccc23)c2ccccc2n1CC(=O)N1CCCC1` [Example 49, 2-Benzyl-4-(2-methyl-1-(2-oxo-2-(pyrrolidin-1-yl)ethyl)-1H-indol-3-yl)phthalazin-1(2H)-one] returned an IC50 of over 2 µM.

On to `Cc1c(Cc2ccc(=O)n(Cc3ccncc3)n2)c2cc(F)ccc2n1CC(=O)O` [Example 194, 2-(5-fluoro-2-methyl-3-((6-oxo-1-(pyridin-4-ylmethyl)-1,6-dihydro-pyridazin-3-yl)methyl)-1H-indol-1-yl)acetic acid], for which the concentration for half-maximal inhibition (IC50) amounted to 0.098 µM.

For the compound `Cc1c(-c2ccc(=O)n(Cc3c(F)cccc3F)c2)c2cc(F)ccc2n1CC(=O)O` [Example 268, 2-(3-(1-(2,6-difluorobenzyl)-6-oxo-1,6-dihydropyridin-3-yl)-5-fluoro-2-methyl-1H-indol-1-yl)acetic acid], the IC50 came out at 0.007 µM.

Turning to `Cc1c(-c2ccc(=O)n(Cc3ccccc3)n2)c2cccc(Br)c2n1CC(=O)O` [Example 246, 2-(3-(1-benzyl-6-oxo-1,6-dihydropyridazin-3-yl)-7-bromo-2-methyl-1H-indol-1-yl)-acetic acid], the IC50 is over 2 µM.

Compound `Cc1c(-c2nn(Cc3ccc(S(C)(=O)=O)cc3)c(=O)c3ccccc23)c2cc(F)ccc2n1CC(=O)O` [Example 65, 2-(5-fluoro-2-methyl-3-(3-(4-(methylsulfonyl)benzyl)-4-oxo-3,4-dihydro-phthalazin-1-yl)-1H-indol-1-yl)acetic acid] had an IC50 of 0.018 µM.

In turn, `Cc1c(-c2nn(Cc3c(F)cccc3F)c(=O)c3ccccc23)c2ccccc2n1CC(=O)O` [Example 172, 2-(3-(3-(2,6-difluorobenzyl)-4-oxo-3,4-dihydrophthalazin-1-yl)-2-methyl-1H-indol-1-yl)acetic acid] gave an IC50 of 0.04 µM.

For the compound `Cc1c(-c2ccc(=O)n(Cc3cccc(F)c3C(F)(F)F)n2)c2cc(Cl)ccc2n1CC(=O)O` [Example 143, 2-(5-chloro-3-(1-(3-fluoro-2-(trifluoromethyl)benzyl)-6-oxo-1,6-dihydro-pyridazin-3-yl)-2-methyl-1H-indol-1-yl)acetic acid], the IC50 is 0.055 µM.

For the compound `Cc1c(-c2nn(Cc3ccccc3)c(=O)c3ccccc23)c2ccccc2n1CCO` [Example 52, 2-Benzyl-4-(1-(2-hydroxyethyl)-2-methyl-1H-indol-3-yl)phthalazin-1(2H)-one], the IC50 was over 2 µM.

In turn, `Cc1c(-c2ccc(=O)n(Cc3ccccc3)c2)c2cc(F)ccc2n1CC(=O)NS(=O)(=O)C1CC1` [Example 319, 2-(3-(1-Benzyl-6-oxo-1,6-dihydropyridin-3-yl)-5-fluoro-2-methyl-1H-indol-1-yl)-N-(cyclo-propyl-sulfonyl)acetamide] gave an IC50 of over 1 µM.

`Cc1c(-c2ccc(=O)n(Cc3ccccc3)n2)c2cc(Br)ccc2n1CC(=O)O` [Example 219, 2-(3-(1-benzyl-6-oxo-1,6-dihydropyridazin-3-yl)-5-bromo-2-methyl-1H-indol-1-yl)-acetic acid] yielded an IC50 of 0.03 µM.

`Cc1c(-c2ccc(=O)n(CCCC(F)(F)F)c2)c2ccccc2n1CC(=O)O` [Example 296, 2-(2-methyl-3-(6-oxo-1-(4,4,4-trifluorobutyl)-1,6-dihydropyridin-3-yl)-1H-indol-1-yl)acetic acid] yielded an IC50 of 0.397 µM.

The compound `Cc1c(-c2nn(Cc3cc(F)ccc3F)c(=O)c3ccccc23)c2cc(F)ccc2n1CC(=O)O` [Example 62, 2-(3-(3-(2,5-difluorobenzyl)-4-oxo-3,4-dihydrophthalazin-1-yl)-5-fluoro-2-methyl-1H-indol-1-yl)acetic acid] came in with an IC50 of 0.009 µM.

As for `CCn1nc(-c2c(C)n(CC(=O)O)c3ccc(F)cc23)c2ccccc2c1=O` [Example 121, 2-(3-(3-ethyl-4-oxo-3,4-dihydrophthalazin-1-yl)-5-fluoro-2-methyl-1H-indol-1-yl)acetic acid], the IC50 came to 0.055 µM.

With `Cc1c(-c2ccc(=O)n(Cc3cccc(F)c3C(F)(F)F)n2)c2cc(F)ccc2n1CC(=O)O` [Example 156, 2-(5-fluoro-3-(1-(3-fluoro-2-(trifluoromethyl)benzyl)-6-oxo-1,6-dihydro-pyridazin-3-yl)-2-methyl-1H-indol-1-yl)acetic acid], the IC50 worked out at 0.025 µM.

Regarding `Cc1c(-c2ccc(=O)n(Cc3cc(F)c(F)cc3F)c2)c2ccccc2n1CC(=O)O` [Example 286, 2-(2-methyl-3-(6-oxo-1-(2,4,5-trifluorobenzyl)-1,6-dihydropyridin-3-yl)-1H-indol-1-yl)acetic acid], the IC50 was found to be 0.011 µM.

In the case of `Cc1c(Cc2ccc(=O)n(Cc3ccc(F)cc3)n2)c2cc(F)ccc2n1CC(=O)O` [Example 342, (3-{[1-(4-fluorobenzyl)-6-oxo-1,6-dihydropyridazin-3-yl]methyl}-5-fluoro-2-methyl-1H-indol-1-yl)acetic acid], the IC50 stood at 0.013 µM.

The compound `Cc1c(-c2cn(CCc3ccccc3)c(=O)c3c2CCCC3)c2cc(F)ccc2n1CC(=O)O` [Example 93, 2-(5-fluoro-2-methyl-3-(1-oxo-2-phenethyl-1,2,5,6,7,8-hexahydro-iso-quinolin-4-yl)-1H-indol-1-yl)acetic acid] registered an IC50 of 0.021 µM.
